From patent publication US20140155334A1, “POLYPHOSPHATE AND PYROPHOSPHATE DERIVATIVE OF SACCHARIDES” (Université de Strasbourg, priority 2010, published 2014)

Molecular target: T1, stripped human Hb (Homo sapiens, UniProt P68871+P69905)
T1 construct: from tissue; host or cells: human blood (red blood cell hemolysate, gel-filtered on Sephadex G-25 to remove BPG)
Test: Oxygen equilibrium curves of stripped hemoglobin (Hemox Analyzer), P50 shift
Type: biochemical
Details: compound:Hb molar ratio 20:1, TES-saline buffer pH 7.4
From the text: Human blood was withdrawn from non-smoking healthy volunteers (CDD) in heparinized microtubes and treated according to the procedure described by Riggs. See A. Riggs, Methods Enzymol. 1981, 76, 5. Red blood cells were washed three times with 0.85% saline and lysed by the addition of 1 volume of purified water per volume of packed red blood cells. Hemolysate was kept cold and passed through a Sephadex G-25 column (1.0×20 cm) equilibrated with 0.1 M NaCl with 10^−5 M EDTA pH 7.5, to remove BPG. The concentration of oxy-Hb was assessed by UV-Vis spectrophotometry (ε=58400 M^−1 cm^−1 at 577 nm per oxy-Hb tetramer).
Solutions of the test compounds (supra, 100 mM) were prepared in purified water and the pH was adjusted to 7.0-7.4 prior to incubations with stripped Hb in a molar ratio of 20:1. The mixtures were diluted in 3 ml of TES-saline buffer (30 mM TES, 140 mM saline, pH 7.4) and oxygen equilibrium curves were measured using a Hemox Analyzer apparatus (TCS Scientific Corp., USA). The P50 values and Hill coefficients were calculated by linear regression analysis from data points obtained between 40 and 60% oxygen saturation.

T1 sequence (P68871 2-147 limits assumed): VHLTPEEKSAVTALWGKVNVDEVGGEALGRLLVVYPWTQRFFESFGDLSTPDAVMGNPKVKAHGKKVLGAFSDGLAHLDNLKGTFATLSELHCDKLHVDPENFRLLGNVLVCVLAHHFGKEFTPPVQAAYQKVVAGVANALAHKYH
T1 sequence (P69905 2-142 limits assumed): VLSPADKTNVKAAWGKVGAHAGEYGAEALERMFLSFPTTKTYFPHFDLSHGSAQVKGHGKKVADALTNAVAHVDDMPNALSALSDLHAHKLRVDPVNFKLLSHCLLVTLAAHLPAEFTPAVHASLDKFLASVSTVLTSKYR

SMILES	relative effectiveness in lowering Hb affinity to oxygen (comparison in words)	shift of the Hb oxygenation curves (P50)
O=C([O-])[C@@H](COP(=O)([O-])[O-])OP(=O)([O-])[O-].[Na+].[Na+].[Na+].[Na+].[Na+] [BPG, 2,3-bisphospho-D-glyceric acid pentasodium salt, reference compound]	BPG<ITPP<IHP	
CO[C@H]1O[C@H](CO)[C@@H](OP(=O)(O)O)[C@H](OP(=O)(O)O)[C@H]1OP(=O)(O)O [Compound 8, 1-O-methyl-α-glucose 2,3,4-trisphosphate]		113%
CO[C@H]1O[C@H](CO)[C@@H](OP(=O)(O)O)[C@H](OP(=O)(O)O)[C@@H]1OP(=O)(O)O [Compound 10, 1-O-methyl-α-mannose 2,3,4-trisphosphate]	generally more effective than their corresponding glucose	144%
O=P(O)(O)O[C@H]1O[C@H](CO)[C@@H](OP(=O)(O)O)[C@H](OP(=O)(O)O)[C@H]1OP(=O)(O)O [Compound 29, α-glucose 1,2,3,4-tetrakisphosphate]		266%
O=P(O)(O)O[C@@H]1O[C@H](CO)[C@@H](OP(=O)(O)O)[C@H](OP(=O)(O)O)[C@H]1OP(=O)(O)O [Compound 30, β-glucose 1,2,3,4-tetrakisphosphate]		201%
O=P(O)(O)O[C@H]1O[C@H](CO)[C@@H](OP(=O)(O)O)[C@H](OP(=O)(O)O)[C@@H]1OP(=O)(O)O [Compound 31, α-mannose 1,2,3,4-tetrakisphosphate]	generally more effective than their corresponding glucose	
O=P(O)(O)O[C@@H]1O[C@H](CO)[C@@H](OP(=O)(O)O)[C@H](OP(=O)(O)O)[C@@H]1OP(=O)(O)O [Compound 32, β-mannose 1,2,3,4-tetrakisphosphate]	generally more effective than their corresponding glucose	
O=P(O)(O)O[C@H]1O[C@H](CO)[C@H](OP(=O)(O)O)[C@H](OP(=O)(O)O)[C@H]1OP(=O)(O)O [Compound 33, α-galactose 1,2,3,4-tetrakisphosphate]		226%
O=P(O)(O)O[C@@H]1O[C@H](CO)[C@H](OP(=O)(O)O)[C@H](OP(=O)(O)O)[C@H]1OP(=O)(O)O [Compound 34, β-galactose 1,2,3,4-tetrakisphosphate]		259%
CO[C@H]1O[C@H](COP(=O)(O)O)[C@@H](OP(=O)(O)O)[C@H](OP(=O)(O)O)[C@H]1OP(=O)(O)O [Compound 41, 1-O-methyl-α-glucose tetrakisphosphate]		264%
CO[C@H]1O[C@H](COP(=O)(O)O)[C@@H](OP(=O)(O)O)[C@H](OP(=O)(O)O)[C@@H]1OP(=O)(O)O [Compound 42, 1-O-methyl-α-mannose tetrakisphosphate]	less effective than the other mannose tetrakisphosphates derivatives	
O=P(O)(O)OC[C@H]1O[C@H](OP(=O)(O)O)[C@H](OP(=O)(O)O)[C@@H](OP(=O)(O)O)[C@@H]1OP(=O)(O)O [Compound 47, α-glucose pentakisphosphate]		466%
O=P(O)(O)OC[C@H]1O[C@H](OP(=O)(O)O)[C@@H](OP(=O)(O)O)[C@@H](OP(=O)(O)O)[C@@H]1OP(=O)(O)O [Compound 49, α-mannose pentakisphosphate]	generally more effective than their corresponding glucose	520%
O=P(O)(O)OC[C@H]1O[C@H](OP(=O)(O)O)[C@H](OP(=O)(O)O)[C@@H](OP(=O)(O)O)[C@H]1OP(=O)(O)O [Compound 51, α-galactose pentakisphosphate]		449%
O=P(O)(O)OC[C@H]1O[C@@H](O[C@H]2[C@H](OP(=O)(O)O)[C@@H](OP(=O)(O)O)C(OP(=O)(O)O)O[C@@H]2COP(=O)(O)O)[C@H](OP(=O)(O)O)[C@@H](OP(=O)(O)O)[C@H]1OP(=O)(O)O (some centres unmarked) [Compound 55, lactose octakisphosphate]		550%
O=P(O)(O)O[C@H]1[C@H](OP(=O)(O)O)[C@@H](OP(=O)(O)O)[C@H](OP(=O)(O)O)[C@@H](OP(=O)(O)O)[C@H]1OP(=O)(O)O [IHP, myo-inositol hexakisphosphate, reference compound]	BPG<ITPP<IHP	466%
O=P1([O-])OC2C3OP(=O)([O-])OP(=O)([O-])OC3C3OP(=O)([O-])OP(=O)([O-])OC3C2OP(=O)([O-])O1.[Na+].[Na+].[Na+].[Na+].[Na+].[Na+] (centres unmarked) [ITPP, myo-inositol trispyrophosphate hexasodium salt, reference compound]	BPG<ITPP<IHP	
